In ChEMBL document CHEMBL1201862, “PubChem BioAssay data set” (2004):
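Following 48 hours of exposure in 96-well plates, responses at five concentrations were used to interpolate endpoints linearly. The concentration for 50% growth inhibition is given as GI50.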 Calls of active or inactive are those of the source. No stated cut-off is given here; in the data, active = GI50 up to about 1.1 µM and inactive = higher.

Legend:
Experiment in all cases: inhibition of tumour cell growth, NCI panel, 48 h
KM12 = test system: KM12
M14 = test system: M14
MDA-MB-435 = test system: MDA-MB-435
UO-31 = test system: UO-31
COLO 205 = test system: COLO 205
MDA-MB-231 = test system: MDA-MB-231
BT-549 = test system: BT-549
SK-MEL-28 = test system: SK-MEL-28
SK-MEL-5 = test system: SK-MEL-5
OVCAR-4 = test system: OVCAR-4
NCI-H226 = test system: NCI-H226
CAKI-1 = test system: CAKI-1
ACHN = test system: ACHN
PC-3 = test system: PC-3
MCF7 = test system: MCF7
Malme-3M = test system: Malme-3M
OVCAR-8 = test system: OVCAR-8
NCI-H23 = test system: NCI-H23
OVCAR-5 = test system: OVCAR-5
CCRF-CEM = test system: CCRF-CEM
786-0 = test system: 786-0
HT-29 = test system: HT-29
SK-OV-3 = test system: SK-OV-3
A498 = test system: A498
MOLT-4 = test system: MOLT-4
SF-539 = test system: SF-539
Hs-578T = test system: Hs-578T
SF-268 = test system: SF-268
TK-10 = test system: TK-10
DU-145 = test system: DU-145
HCT-116 = test system: HCT-116
SN12C = test system: SN12C
RPMI-8226 = test system: RPMI-8226
OVCAR-3 = test system: OVCAR-3
UACC-62 = test system: UACC-62
HOP-92 = test system: HOP-92
EKVX = test system: EKVX
SK-MEL-2 = test system: SK-MEL-2
A549 = test system: A549
K562 = test system: K562
HL-60 = test system: HL-60
SNB-19 = test system: SNB-19
SF-295 = test system: SF-295
T47D = test system: T47D
HCT-15 = test system: HCT-15
HOP-62 = test system: HOP-62
SW-620 = test system: SW-620
UACC-257 = test system: UACC-257
U-251 = test system: U-251
LOX IMVI = test system: LOX IMVI
IGROV-1 = test system: IGROV-1
NCI/ADR-RES = test system: NCI/ADR-RES
MDA-N = test system: MDA-N
NCI-H522 = test system: NCI-H522
SNB-75 = test system: SNB-75
NCI-H460 = test system: NCI-H460
RXF 393 = test system: RXF 393

With `CCCCOC(=O)C(NC(C(=O)OCCCC)c1cc(C(C)(C)C)c(O)c(C(C)(C)C)c1)c1cc(C(C)(C)C)c(O)c(C(C)(C)C)c1` (stereo not given) the GI50 (KM12) was > 100 µM (inactive), the GI50 (M14) was > 100 µM (inactive) and the GI50 (MDA-MB-435) was > 100 µM (inactive). For the same compound, the GI50 (UO-31) was 74.6 µM (inactive), the GI50 (COLO 205) was > 100 µM (inactive) and the GI50 (MDA-MB-231) was > 100 µM (inactive). The GI50 (BT-549) was > 100 µM (inactive), the GI50 (SK-MEL-28) was > 100 µM (inactive) and the GI50 (SK-MEL-5) was > 100 µM (inactive). For the same compound, the GI50 (OVCAR-4) was > 100 µM (inactive), the GI50 (NCI-H226) was > 100 µM (inactive) and the GI50 (CAKI-1) was > 100 µM (inactive). For the same compound, the GI50 (ACHN) was > 100 µM (inactive), the GI50 (PC-3) was > 100 µM (inactive) and the GI50 (MCF7) was > 100 µM (inactive). The GI50 (Malme-3M) was > 100 µM (inactive), the GI50 (OVCAR-8) was > 100 µM (inactive) and the GI50 (NCI-H23) was > 100 µM (inactive). The GI50 (OVCAR-5) was > 100 µM (inactive), the GI50 (CCRF-CEM) was 73.8 µM (inactive) and the GI50 (786-0) was > 100 µM (inactive). The GI50 (HT-29) was 76 µM (inactive), the GI50 (SK-OV-3) was > 100 µM (inactive) and the GI50 (A498) was > 100 µM (inactive). For the same compound, the GI50 (MOLT-4) was 75 µM (inactive), the GI50 (SF-539) was > 100 µM (inactive) and the GI50 (Hs-578T) was > 100 µM (inactive). The GI50 (SF-268) was > 100 µM (inactive), the GI50 (TK-10) was > 100 µM (inactive) and the GI50 (DU-145) was > 100 µM (inactive). The GI50 (HCT-116) was 77.1 µM (inactive), the GI50 (SN12C) was > 100 µM (inactive) and the GI50 (RPMI-8226) was 31.5 µM (inactive). For the same compound, the GI50 (OVCAR-3) was > 100 µM (inactive), the GI50 (UACC-62) was > 100 µM (inactive) and the GI50 (HOP-92) was 75 µM (inactive). The GI50 (EKVX) was > 100 µM (inactive), the GI50 (SK-MEL-2) was > 100 µM (inactive) and the GI50 (A549) was > 100 µM (inactive). The GI50 (K562) was 56.9 µM (inactive), the GI50 (HL-60) was > 100 µM (inactive) and the GI50 (SNB-19) was > 100 µM (inactive). For the same compound, the GI50 (SF-295) was > 100 µM (inactive), the GI50 (T47D) was > 100 µM (inactive) and the GI50 (HCT-15) was greater than 100 µM. For the same compound, the GI50 (HOP-62) was > 100 µM (inactive), the GI50 (SW-620) was > 100 µM (inactive) and the GI50 (UACC-257) was > 100 µM (inactive). The GI50 (U-251) was > 100 µM (inactive), the GI50 (LOX IMVI) was > 100 µM (inactive) and the GI50 (IGROV-1) was > 100 µM (inactive). The GI50 (NCI/ADR-RES) was > 100 µM (inactive), the GI50 (MDA-N) was > 100 µM (inactive) and the GI50 (NCI-H522) was > 100 µM (inactive). For the same compound, the GI50 (SNB-75) was 8.63 µM (inactive).
With `O=C(N/N=C/C=C/c1ccc([N+](=O)[O-])o1)c1ccc(Br)s1` the GI50 (KM12) was 17.8 µM (inactive), the GI50 (M14) was 20.4 µM (inactive) and the GI50 (MDA-MB-435) was 25.4 µM (inactive). The GI50 (UO-31) was 21 µM (inactive), the GI50 (COLO 205) was 17 µM (inactive) and the GI50 (MDA-MB-231) was 22.8 µM (inactive). The GI50 (BT-549) was 25.3 µM (inactive), the GI50 (SK-MEL-28) was 22.4 µM (inactive) and the GI50 (SK-MEL-5) was 18.6 µM (inactive). The GI50 (OVCAR-4) was 18.9 µM (inactive), the GI50 (NCI-H226) was 22.2 µM (inactive) and the GI50 (CAKI-1) was 27.9 µM (inactive). The GI50 (ACHN) was 16.3 µM (inactive), the GI50 (PC-3) was 18.7 µM (inactive) and the GI50 (MCF7) was 16.3 µM (inactive). For the same compound, the GI50 (Malme-3M) was 14.9 µM (inactive), the GI50 (OVCAR-8) was 16.9 µM (inactive) and the GI50 (NCI-H23) was 14.9 µM (inactive). For the same compound, the GI50 (OVCAR-5) was 26.3 µM (inactive), the GI50 (CCRF-CEM) was 9.2 µM (inactive) and the GI50 (786-0) was 19.1 µM (inactive). The GI50 (HT-29) was 17 µM (inactive), the GI50 (NCI-H460) was 42.7 µM (inactive) and the GI50 (SK-OV-3) was > 100 µM (inactive). The GI50 (A498) was 32.1 µM (inactive), the GI50 (MOLT-4) was 13.3 µM (inactive) and the GI50 (SF-539) was 26.8 µM (inactive). For the same compound, the GI50 (RXF 393) was 15.6 µM (inactive), the GI50 (Hs-578T) was 6.73 µM (inactive) and the GI50 (SF-268) was 28.8 µM (inactive). The GI50 (TK-10) was 20 µM (inactive), the GI50 (DU-145) was 30.3 µM (inactive) and the GI50 (HCT-116) was 3.48 µM (inactive). For the same compound, the GI50 (SN12C) was 29.6 µM (inactive), the GI50 (RPMI-8226) was 3.78 µM (inactive) and the GI50 (OVCAR-3) was 16.1 µM (inactive). The GI50 (UACC-62) was 23.2 µM (inactive), the GI50 (HOP-92) was 10.8 µM (inactive) and the GI50 (EKVX) was 31.2 µM (inactive). The GI50 (SK-MEL-2) was 23.3 µM (inactive), the GI50 (A549) was 82.8 µM (inactive) and the GI50 (K562) was 24.5 µM (inactive). The GI50 (HL-60) was 34.1 µM (inactive), the GI50 (SNB-19) was 24 µM (inactive) and the GI50 (SF-295) was > 100 µM (inactive). For the same compound, the GI50 (T47D) was 28.4 µM (inactive), the GI50 (HCT-15) was 13.2 µM and the GI50 (HOP-62) was 51.2 µM (inactive). The GI50 (SW-620) was 16.1 µM (inactive), the GI50 (U-251) was 28.1 µM (inactive) and the GI50 (LOX IMVI) was 19.9 µM (inactive). The GI50 (IGROV-1) was 6.76 µM (inactive), the GI50 (NCI/ADR-RES) was 25.1 µM (inactive) and the GI50 (MDA-N) was 20.6 µM (inactive). The GI50 (SNB-75) was > 100 µM (inactive).
